Tests used:
[1] = test system: Streptococcus mutans ATCC 35668 biofilms; assay: Immediate dispersal of stationary S. mutans biofilms, crystal violet, 1 minute treatment; assay type: cell-based; details: 1.2% chlorhexidine, room temperature
Procedure: FIG. 11 depicts the immediate dispersal of Streptococcus mutans ATCC 35668 2-day old stationary biofilms treated with 100 μg/mL chitosan-arginine (43 kDa, 25% functionalized, 88% DDA, 2.28 PDI), water, or 1.2% Chlorhexidine. The biofilms were rinsed, stained with crystal violet and treated for 1 minute and rinsed.
The S. mutans biofilms were grown in 12-well untreated tissue culture plates containing BHI media supplemented with 1% sucrose for approximately 3 days. The biofilms were rinsed with water three times and stained with crystal violet for 2 minutes then rinsed three times (FIG. 11, ‘Before’). Water, 100 μg/ml chitosan-arginine or 1.2% chlorhexidine were used to treat each biofilm for 1 minute at room temperature (FIG. 11, ‘During’).

[2] = test system: Streptococcus mutans (ATCC 35668); assay: Synergy of chitosan-arginine with chlorhexidine, remaining CFU after 1 hour; assay type: cell-based
Procedure: Solutions of both agents were prepared at 4× their intended final concentration. Two concentrations for each agent are used for each assay and the drugs were combined in 4 ways: […] Controls of each drug alone as well as positive (S. mutans only) and negative (media only) controls were prepared. […] After incubation, the plates were centrifuged for 10 minutes at 4000 RPM on a microtiter plate rotor, before being resuspended, sonicated, diluted and plated on BHI for remaining CPU.

**Q.** Which results are given for [H]/N=C(\N/C(=N/[H])NCCCCCCNC(=N)NC(=N)Nc1ccc(Cl)cc1)Nc1ccc(Cl)cc1 [Chlorhexidine]?
**A.** biofilm after 1 minute treatment and rinsing [1]: removed from the surface; Log CFU reduction beyond most active agent ([2]; Chlorhexidine 0.00625% alone (C/A 0 μg/ml)): 1.9 Log CFU; Log CFU reduction beyond most active agent ([2]; Chlorhexidine 0.0125% alone (C/A 0 μg/ml)): 1.8 Log CFU

From patent US20180049965A1, “ORAL CARE METHODS AND COMPOSITIONS UTILIZING CHITOSAN-DERIVATIVE COMPOUNDS” (Synedgen Inc., priority 2009, published 2018)
